# ChEMBL document CHEMBL1148041, “New fatty acid esters of drimane sesquiterpenes from Lactarius uvidus” (J Nat Prod, 1994)
# Assays:
# Artemia salina = assay: Toxicity in Artemia salina; type: organism-based; conditions: in vivo
# HL-60 [1] = assay: Cytotoxicity against human HL60 cells assessed as inhibition of [3H]thymidine incorporation at 50 gamma/ml; type: functional
# HL-60 [2] = assay: Cytotoxicity against human HL60 cells assessed as inhibition of [3H]thymidine incorporation at 0.05 gamma/ml; type: functional
Compound,LC50 (Artemia salina),inhibition (INH) (HL-60 [1]),inhibition (INH) (HL-60 [2])
CC1(C)CCC[C@]2(C)[C@@H](CO)[C@@]3(C)O[C@H]3C(=O)[C@@H]12 [UVIDIN A],48.8 ppm,97%,21%
CC1(C)[C@@H](O)CC[C@]2(C)[C@@H](CO)[C@@]3(C)O[C@H]3C(=O)[C@@H]12 [UVIDIN B],,61%,0%
